The record followed here is patent US8383139B2 (Bayer CropScience AG, priority 2008, dated 2013).

The nature of data set [1]: log P by HPLC on reversed-phase columns (C 18), EEC Directive 79/831 Annex V.A8. To be noted: reversed-phase C18 HPLC column, pH 2.3, [a] HPLC, acid region pH 2.3, 0.1% aqueous phosphoric acid and acetonitrile; read-out: log p. The class given is physicochemical.
Data set [2] has as its system Sphaerotheca fuliginea. Nature of the data set: Sphaerotheca test (cucumber)/protective. To be noted: Podosphaera fuliginea, 168 h, 500 ppm active substance, protective, evaluation 7 days after inoculation, read-out: degree of effectiveness. It is filed as in vivo. How it is done:
• Solvents: 49 parts by weight of N,N-dimethylformamide • Emulsifier: 1 part by weight of alkylaryl polyglycol ether (polyoxyethylene (16) tristearylphenyl ether) To prepare a suitable active substance composition, 1 part by weight of active substance is mixed with the given amounts of solvents and emulsifier and the concentrate is diluted to the desired concentration using water. For the testing of protective effectiveness, young cucumber plants are sprayed with the active substance composition in the application rate given. One day after the treatment, the plants are inoculated with a suspension of spores of Sphaerotheca fuliginea. Subsequently, the plants are placed in a greenhouse at 70% relative humidity and at a temperature of 23° C. Evaluation is carried out 7 days after the inoculation. In this connection, 0% means a degree of effectiveness corresponding to that of the control, while a degree of effectiveness of 100% means that no infestation is observed.

Data set [3] relates to Alternaria solani. Nature of the data set: Alternaria test (tomato)/protective. The class given is in vivo. To be noted: 72 h, 100 ppm active substance, protective, evaluation 3 days after inoculation, read-out: degree of effectiveness. The procedure: (§1) • Solvents: 24.5 parts by weight of acetone • 24.5 parts by weight of dimethylacetamide • Emulsifier: 1 part by weight of alkylaryl polyglycol ether (polyoxyethylene (16) tristearylphenyl ether)
(§2) To prepare a suitable active substance composition, 1 part by weight of active substance is mixed with the given amounts of solvents and emulsifier and the concentrate is diluted to the desired concentration using water.
For the testing of protective effectiveness, young plants are sprayed with the active substance composition in the application rate given. After the spray coating has been dried on, the plants are inoculated with an aqueous suspension of spores of Alternaria solani. The plants are then placed in an incubation chamber at approximately 20° C. and 100% relative humidity.
Evaluation is carried out 3 days after the inoculation. In this connection, 0% means a degree of effectiveness corresponding to that of the control, while a degree of effectiveness of 100% means that no infestation is observed.

Data set [4] relates to Phakopsora pachyrhizi. Kind of data set: Phakopsora test (soybean)/protective. It is filed as in vivo. To be noted: 264 h, 500 ppm active substance, protective, evaluation 11 days after inoculation, read-out: degree of effectiveness. The procedure:
• Solvent: 28.5 parts by weight of acetone • Emulsifier: 1.5 parts by weight of polyoxyethylene alkylphenyl ether (polyoxy-ethylene (16) tristearylphenyl ether)
To prepare a suitable active substance composition, 1 part by weight of active substance is mixed with the given amounts of solvent and emulsifier and the concentrate is diluted to the desired concentration using water.
For the testing of protective effectiveness, young plants are sprayed with the active substance composition at the application rate given. One day after the spraying, the plants are sprayed with an aqueous suspension of spores of Phakopsora pachyrhizi. The plants remain in a greenhouse at 20° C. and 80% relative humidity.
Evaluation is carried out 11 days after the inoculation. In this connection, 0% means a degree of effectiveness corresponding to that of the control, while a degree of effectiveness of 100% means that no infestation is observed.

The subject of data set [5] is Puccinia triticina. Nature of the data set: Puccinia triticina test (wheat)/protective. The class given is in vivo. To be noted: 192 h, 500 ppm active substance, protective, evaluation 8 days after inoculation, read-out: degree of effectiveness. How it is done: • Solvent: 50 parts by weight of N,N-dimethylacetamide • Emulsifier: 1 part by weight of alkylaryl polyglycol ether (polyoxyethylene (16) tristearylphenyl ether) To prepare a suitable active substance composition, 1 part by weight of active substance is mixed with the given amounts of solvent and emulsifier and the concentrate is diluted to the desired concentration using water. For the testing of protective effectiveness, young plants are sprayed with the active substance composition in the application rate given. After the spray coating has been dried on, the plants are sprayed with spores with a suspension of spores of Puccinia triticina. The plants remain in an incubation chamber at 20° C. and 100% relative humidity for 48 hours. The plants are placed in a greenhouse at a temperature of approximately 20° C. and a relative humidity of approximately 80%. Evaluation is carried out 8 days after the inoculation. In this connection, 0% means a degree of effectiveness corresponding to that of the control, while a degree of effectiveness of 100% means that no infestation is observed.

Data set [6] deals with Uromyces appendiculatus. Kind of data set: Uromyces test (beans)/protective. The class given is in vivo. To be noted: 240 h, 100 ppm active substance, protective, evaluation 10 days after inoculation, read-out: degree of effectiveness. How it is done: as §1, §2
For the testing of protective effectiveness, young plants are sprayed with the active substance composition in the application rate given. After the spray coating has been dried on, the plants are inoculated with an aqueous suspension of the spores of the bean rust pathogen Uromyces appendiculatus and then remain in an incubation chamber at approximately 20° C. and 100% relative humidity for 1 day.
The plants are then placed in a greenhouse at approximately 21° C. and a relative humidity of approximately 90%.
Evaluation is carried out 10 days after the inoculation. In this connection, 0% means a degree of effectiveness corresponding to that of the control, while a degree of effectiveness of 100% means that no infestation is observed.

For data set [7], the system named is Septoria tritici. Kind of data set: Septoria tritici test (wheat)/protective. It is filed as in vivo. To be noted: Zymoseptoria tritici, 504 h, 500 ppm active substance, protective, evaluation 21 days after inoculation, read-out: degree of effectiveness. How it is done: • Solvent: 50 parts by weight of N,N-dimethylacetamide • Emulsifier: 1 part by weight of alkylaryl polyglycol ether (polyoxyethylene (16) tristearylphenyl ether) To prepare a suitable active substance composition, 1 part by weight of active substance is mixed with the given amounts of solvent and emulsifier and the concentrate is diluted to the desired concentration using water. For the testing of protective effectiveness, young plants are sprayed with the active substance composition at the application rate given. After the spray coating has dried on, the plants are sprayed with a suspension of spores of Septoria tritici. The plants remain in an incubation chamber at 20° C. and 100% relative humidity for 48 hours. The plants are afterwards placed under a transparent hood at 15° C. and 100% relative humidity for a further 60 hours. The plants are placed in a greenhouse at a temperature of approximately 15° C. and a relative humidity of 80%. Evaluation is carried out 21 days after the inoculation. In this connection, 0% means a degree of effectiveness corresponding to that of the control, while a degree of effectiveness of 100% means that no infestation is observed.

Take `CCN(C)C=Nc1cc(C)c(Oc2nc(C(C)c3ccccc3)ns2)cc1C` (centres unmarked) [Example 5, N′-(2,5-dimethyl-4-{[3-(1-phenylethyl)-1,2,4-thiadiazol-5-yl]oxy}phenyl)-N-ethyl-N-methylimidoformamide]: the chromatographic logP in data set [1] is 1.92. For the same compound, the pest or weed control at 500 ppm in data set [2] was not below 70%; in data set [4], not below 80%; in data set [5], not below 70%. In addition, the pest or weed control at 100 ppm in data set [3] and in data set [6] was not below 70% in each case.

With `CCN(C)C=Nc1cc(C)c(Oc2nc(Cc3c(Cl)cccc3Cl)ns2)cc1C` [Example 15, N′-(4-{[3-(2,6-dichlorobenzyl)-1,2,4-thiadiazol-5-yl]oxy}-2,5-dimethylphenyl)-N-ethyl-N-methylimidoformamide], the pest or weed control at 500 ppm in data set [7], in data set [2] and in data set [5] was not below 70% throughout. Besides, in data set [1], the chromatographic logP stood at 2.05. The pest or weed control at 100 ppm in data set [3] and in data set [6] was not below 70% each time.

For the compound `Cc1cc(Oc2nc(C(C)c3ccc(Cl)cc3)ns2)c(C)cc1N=CN(C)C(C)C` (centres unmarked) [Example 19, N′-[4-({3-[1-(4-chlorophenyl)ethyl]-1,2,4-thiadiazol-5-yl}oxy)-2,5-dimethylphenyl]-N-methyl-N-(propan-2-yl)imidoformamide], the pest or weed control at 500 ppm in data set [7], in data set [2] and in data set [5] was not below 70% throughout. Further, the chromatographic logP in data set [1] was found to be 2.46. For the same compound, the pest or weed control at 100 ppm in data set [3] and in data set [6] was not below 70% in each case.

Regarding `CCN(C)C=Nc1cc(Cl)c(Oc2nc(C(C)c3ccc(Cl)cc3)ns2)cc1C` (centres unmarked) [Example 20, N′-[5-chloro-4-({3-[1-(4-chlorophenyl)ethyl]-1,2,4-thiadiazol-5-yl}oxy)-2-methylphenyl]-N-ethyl-N-methylimidoformamide], the chromatographic logP in data set [1] came out at 2.39. Further, the pest or weed control at 500 ppm in data set [2] was not below 70%; in data set [4], not below 80%; in data set [5] it was not below 70%. The pest or weed control at 100 ppm in data set [6] is not below 70%.

`CCN(C)C=Nc1cc(C)c(Oc2nc(Cc3ccccc3)ns2)cc1C` [Example 23, N′-{4-[(3-benzyl-1,2,4-thiadiazol-5-yl)oxy]-2,5-dimethylphenyl}-N-ethyl-N-methylimidoformamide]: the pest or weed control at 500 ppm in data set [7], in data set [2] and in data set [5] was not below 70% each time. The chromatographic logP in data set [1] came to 1.71. In addition, the pest or weed control at 100 ppm in data set [3] and in data set [6] was not below 70% in each case.

For `Cc1cc(Oc2nc(C(C)(C)c3ccc(Cl)cc3)ns2)c(C)cc1N=CN1CCCCC1` [Example 26, 4-({3-[2-(4-chlorophenyl)propan-2-yl]-1,2,4-thiadiazol-5-yl}oxy)-2,5-dimethyl-N-(piperidin-1-ylmethylidene)aniline], the pest or weed control at 500 ppm in data set [7], in data set [2] and in data set [5] was not below 70% in each case. In data set [1], the chromatographic logP was 2.76. The pest or weed control at 100 ppm in data set [3] and in data set [6] was not below 70% in each case.

As to `CCN(C)C=Nc1cc(Cl)c(Oc2nc(C(C)(C)c3ccc(Cl)cc3)ns2)cc1C` [Example 28, N′-[5-chloro-4-({3-[2-(4-chlorophenyl)propan-2-yl]-1,2,4-thiadiazol-5-yl}oxy)-2-methylphenyl]-N-ethyl-N-methylimidoformamide], the pest or weed control at 500 ppm in data set [7], in data set [2] and in data set [5] was not below 70% each time. Moreover, the chromatographic logP in data set [1] was 2.73. In addition, the pest or weed control at 100 ppm in data set [3] and in data set [6] was not below 70% in each case.

With `Cc1cc(Oc2nc(Cc3ccccc3)ns2)c(C)cc1N=CN1CCCCC1` [Example 36, 4-[(3-benzyl-1,2,4-thiadiazol-5-yl)oxy]-2,5-dimethyl-N-(piperidin-1-ylmethylidene)aniline], the pest or weed control at 500 ppm in data set [7], in data set [2] and in data set [5] was not below 70% throughout. In data set [1], the chromatographic logP was found to be 1.91. In addition, the pest or weed control at 100 ppm in data set [3] and in data set [6] was not below 70% in each case.

Turning to `CCN(C)C=Nc1cc(C)c(Oc2nc(Cc3ccccc3C(F)(F)F)ns2)cc1C` [Example 42, N′-[2,5-dimethyl-4-({3-[2-(trifluoromethyl)benzyl]-1,2,4-thiadiazol-5-yl}oxy)phenyl]-N-ethyl-N-methylimidoformamide], the pest or weed control at 500 ppm in data set [7], in data set [2] and in data set [5] was not below 70% in each case. The chromatographic logP in data set [1] was determined as 2.1. Also, the pest or weed control at 100 ppm in data set [3] and in data set [6] was not below 70% in each case.

Take `Cc1cc(Oc2nc(Cc3ccc(Cl)c(Cl)c3)ns2)c(C)cc1N=CN(C)C(C)C` [Example 47, N′-(4-{[3-(3,4-dichlorobenzyl)-1,2,4-thiadiazol-5-yl]oxy}-2,5-dimethylphenyl)-N-methyl-N-(propan-2-yl)imidoformamide]: the pest or weed control at 500 ppm in data set [7], in data set [2] and in data set [5] was not below 70% throughout. Besides, the chromatographic logP in data set [1] amounted to 2.35. The pest or weed control at 100 ppm in data set [3] and in data set [6] was not below 70% in each case.

As for `CCN(C)C=Nc1cc(C)c(Oc2nc(Cc3ccc(Cl)c(Cl)c3)ns2)cc1C` [Example 51, N′-(4-{[3-(3,4-dichlorobenzyl)-1,2,4-thiadiazol-5-yl]oxy}-2,5-dimethylphenyl)-N-ethyl-N-methylimidoformamide], the pest or weed control at 500 ppm in data set [7], in data set [2] and in data set [5] was not below 70% throughout. In addition, the chromatographic logP in data set [1] was 2.3. Also, the pest or weed control at 100 ppm in data set [3] and in data set [6] was not below 70% throughout.
